Test results from ChEMBL document CHEMBL3822373, “An evolved oxazolidinone with selective potency against Mycobacterium tuberculosis and gram positive bacteria” (2016).
≈ marks a conversion by molar mass, not a printed value. Calls of active or inactive are those of the source. The rule behind the calls is not given here.

Legend:
Enterococcus faecalis [1] = assay: Potentiation of biapenem-induced antibacterial activity against Enterococcus faecalis ATCC 19433 at <0.5 times MIC90 by checkboard titration assay; format: functional
[2] = test system: Mycobacterium tuberculosis; assay: Antibacterial activity against Mycobacterium tuberculosis 124R measured after 14 days by broth microdilution assay; format: functional; settings: 336 h
[3] = test system: Mycobacteroides abscessus; assay: Antibacterial activity against Mycobacterium abscessus ATCC 19977 measured after 3 days by broth microdilution assay; format: functional; settings: ATCC 19977, 72 h
Staphylococcus aureus [4] = assay: Bacteriostatic activity against […] Staphylococcus aureus ATCC 29213 assessed as prevention of spontaneous resistant mutant selection up to 60 times MIC90 measured after 5 weeks; format: functional, organism-based
Staphylococcus aureus [5] = assay: Potentiation of biapenem-induced antibacterial activity against Staphylococcus aureus ATCC 29213 at <0.5 times MIC90 by checkboard titration assay; format: functional, organism-based
[6] = test system: Mycobacterium tuberculosis; assay: Antibacterial activity against Mycobacterium tuberculosis 115R measured after 14 days by broth microdilution assay; format: functional; settings: 336 h
Enterococcus faecalis [7] = assay: Bacteriostatic activity against Enterococcus faecalis ATCC 19433 assessed as prevention of spontaneous resistant mutant selection up to 60 times MIC90 measured after 5 weeks; format: functional
Staphylococcus aureus [8] = assay: Antibacterial activity against […] Staphylococcus aureus ATCC 29213 measured after 18 hrs by broth microdilution assay; format: functional; settings: ATCC 29213, 18 h
Pseudomonas aeruginosa = assay: Antibacterial activity against Pseudomonas aeruginosa PA14 measured after 18 hrs by broth microdilution assay; format: functional; settings: PA14, 18 h
[9] = test system: Mycobacterium tuberculosis; assay: Antibacterial activity against […] Mycobacterium tuberculosis H37Rv measured after 14 days by broth microdilution assay; format: functional; settings: 336 h
Enterococcus faecalis [10] = assay: Potentiation of tabipenem-induced antibacterial activity against Enterococcus faecalis ATCC 19433 at <0.5 times MIC90 by checkboard titration assay; format: functional
Acinetobacter baumannii [11] = assay: Antibacterial activity against Acinetobacter baumannii 6M-1b measured after 18 hrs by broth microdilution assay; format: functional
[12] = test system: Mycobacterium tuberculosis; assay: Potentiation of rifampicin-induced antibacterial activity against Mycobacterium tuberculosis H37Rv by checkboard titration assay; format: functional, organism-based
Klebsiella pneumoniae = assay: Antibacterial activity against Klebsiella pneumoniae ATCC 35657 measured after 18 hrs by broth microdilution assay; format: functional; settings: ATCC 35657, 18 h
Staphylococcus aureus [13] = assay: Bactericidal activity against Staphylococcus aureus ATCC 29213 up to 8 times MIC90 measured after 2 days by broth microdilution assay; format: functional, organism-based
[14] = test system: Mycobacterium tuberculosis; assay: Bactericidal activity against Mycobacterium tuberculosis H37Rv measured after 21 days by broth microdilution assay; format: functional; settings: 504 h, read-out: MBC99.9
Staphylococcus aureus [15] = assay: Potentiation of tabipenem-induced antibacterial activity against Staphylococcus aureus ATCC 29213 at <0.5 times MIC90 by checkboard titration assay; format: functional, organism-based
Staphylococcus aureus [16] = assay: Potentiation of faropenem-induced antibacterial activity against Staphylococcus aureus ATCC 29213 at <0.5 times MIC90 by checkboard titration assay; format: functional, organism-based
Enterococcus faecalis [17] = assay: Antibacterial activity against Enterococcus faecalis ATCC 19433 measured after 18 hrs by broth microdilution assay; format: functional; settings: ATCC 19433, 18 h
Enterococcus faecalis [18] = assay: Bactericidal activity against Enterococcus faecalis ATCC 19433 up to 8 times MIC90 measured after 2 days by broth microdilution assay; format: functional
Acinetobacter baumannii [19] = assay: Antibacterial activity against Acinetobacter baumannii ATCC 19606 measured after 18 hrs by broth microdilution assay; format: functional; settings: ATCC 19606, 18 h
Mycobacterium avium = assay: Antibacterial activity against Mycobacterium avium 104 measured after 7 days by broth microdilution assay; format: functional; settings: Mycobacterium avium, 104, 168 h
Acinetobacter baumannii [20] = assay: Antibacterial activity against Acinetobacter baumannii ACBA measured after 18 hrs by broth microdilution assay; format: functional
Enterococcus faecalis [21] = assay: Potentiation of faropenem-induced antibacterial activity against Enterococcus faecalis ATCC 19433 at <0.5 times MIC90 by checkboard titration assay; format: functional
Enterobacter cloacae = assay: Antibacterial activity against Enterobacter cloacae ATCC 13047 measured after 18 hrs by broth microdilution assay; format: functional; settings: ATCC 13047, 18 h
[22] = test system: Mycobacterium tuberculosis; assay: Potentiation of isoniazid-induced antibacterial activity against Mycobacterium tuberculosis H37Rv by checkboard titration assay; format: functional, organism-based
[23] = test system: Mycobacterium tuberculosis; assay: Antibacterial activity against Mycobacterium tuberculosis; format: functional

In the case of CC(=O)NC[C@H]1CN(c2ccc3c(c2)Oc2ccccc2O3)C(=O)O1, the Activity (Enterococcus faecalis [1]) is reported as “inactive”, the MIC90 [2] is reported as 0.5 µg/mL (≈ 1.47 µM) and the MIC90 [3] is reported as > 64 µg/mL. The Activity (Staphylococcus aureus [4]) was “Active”, the Activity (Staphylococcus aureus [5]) was “inactive” and the MIC90 [6] was 0.5 µg/mL (≈ 1.47 µM). The Activity (Enterococcus faecalis [7]) was “Active”, the MIC90 (Staphylococcus aureus [8]) was 0.5 µg/mL (≈ 1.47 µM) and the MIC90 (Pseudomonas aeruginosa) was > 64 µg/mL. For the same compound, the MIC90 [9] was 0.5 µg/mL (≈ 1.47 µM), the Activity (Enterococcus faecalis [10]) was “inactive” and the MIC90 (Acinetobacter baumannii [11]) was 0.25 µg/mL (≈ 0.735 µM). The Activity [12] was “inactive”, the MIC90 (Klebsiella pneumoniae) was > 64 µg/mL and the Activity (Staphylococcus aureus [13]) was “inactive”. For the same compound, the MBC [14] was 2 µg/mL (≈ 5.88 µM), the Activity (Staphylococcus aureus [15]) was “inactive” and the Activity (Staphylococcus aureus [16]) was “inactive”. The MIC90 (Enterococcus faecalis [17]) was 0.25 µg/mL (≈ 0.735 µM), the Activity (Enterococcus faecalis [18]) was “inactive” and the MIC90 (Acinetobacter baumannii [19]) was 32 µg/mL (≈ 94 µM). The MIC90 (Mycobacterium avium) was > 64 µg/mL, the MIC90 (Acinetobacter baumannii [20]) was > 64 µg/mL and the Activity (Enterococcus faecalis [21]) was “inactive”. The MIC90 (Enterobacter cloacae) was > 64 µg/mL and the Activity [22] was “inactive”.
C[C@@H](O)[C@H]1C(=O)N2C(C(=O)[O-])=C(SC3Cn4cnc[n+]4C3)[C@H](C)[C@H]12 (stereo partly specified) [BIAPENEM] gave an MIC90 [23] of 2.5 µg/mL (≈ 7.13 µM), an MIC90 (Staphylococcus aureus [8]) of 0.007 µg/mL (≈ 0.02 µM) and an MIC90 (Enterococcus faecalis [17]) of 0.25 µg/mL (≈ 0.713 µM).
With C[C@@H](O)[C@H]1C(=O)N2C(C(=O)O)=C([C@H]3CCCO3)S[C@H]12 [FAROPENEM] the MIC90 [23] was 2.5 µg/mL (≈ 8.76 µM), the MIC90 (Staphylococcus aureus [8]) was 0.015 µg/mL (≈ 0.0526 µM) and the MIC90 (Enterococcus faecalis [17]) was 0.25 µg/mL (≈ 0.876 µM).
For CC(=O)NC[C@H]1CN(c2ccc(N3CCOCC3)c(F)c2)C(=O)O1 [LINEZOLID], the MIC90 [2] was 0.25 µg/mL (≈ 0.741 µM), the MIC90 [6] was 0.25 µg/mL (≈ 0.741 µM) and the MIC90 (Staphylococcus aureus [8]) was 1 µg/mL (≈ 2.96 µM). For the same compound, the MIC90 (Pseudomonas aeruginosa) was > 64 µg/mL, the MIC90 [9] was 0.2 µg/mL (≈ 0.593 µM) and the MIC90 (Acinetobacter baumannii [11]) was 0.25 µg/mL (≈ 0.741 µM). The MIC90 (Klebsiella pneumoniae) was 16 µg/mL (≈ 47.4 µM), the MIC90 (Enterococcus faecalis [17]) was 1 µg/mL (≈ 2.96 µM) and the MIC90 (Acinetobacter baumannii [19]) was > 64 µg/mL. The MIC90 (Acinetobacter baumannii [20]) was > 64 µg/mL and the MIC90 (Enterobacter cloacae) was > 64 µg/mL.
In the case of C[C@@H](O)[C@H]1C(=O)N2C(C(=O)O)=C(S[C@@H]3CN[C@H](C(=O)N(C)C)C3)[C@H](C)[C@H]12 [MEROPENEM], the MIC90 [2] is reported as 8 µg/mL (≈ 20.9 µM), the MIC90 [3] is reported as > 64 µg/mL and the MIC90 [6] is reported as 8 µg/mL (≈ 20.9 µM). It also gave an MIC90 (Staphylococcus aureus [8]) of 0.06 µg/mL (≈ 0.156 µM), an MIC90 (Pseudomonas aeruginosa) of 0.25 µg/mL (≈ 0.652 µM) and an MIC90 [9] of 4 µg/mL (≈ 10.4 µM). The MIC90 (Acinetobacter baumannii [11]) was 1 µg/mL (≈ 2.61 µM), the MIC90 (Klebsiella pneumoniae) was < 0.06 µg/mL and the MIC90 (Enterococcus faecalis [17]) was 4 µg/mL (≈ 10.4 µM). For the same compound, the MIC90 (Acinetobacter baumannii [19]) was > 64 µg/mL, the MIC90 (Mycobacterium avium) was > 64 µg/mL and the MIC90 (Acinetobacter baumannii [20]) was > 64 µg/mL. For the same compound, the MIC90 (Enterobacter cloacae) was 0.13 µg/mL (≈ 0.339 µM).
For CO[C@H]1/C=C/O[C@@]2(C)Oc3c(C)c(O)c4c(O)c(c(/C=N/N5CCN(C)CC5)c(O)c4c3C2=O)NC(=O)/C(C)=C\C=C\[C@H](C)[C@H](O)[C@@H](C)[C@@H](O)[C@@H](C)[C@H](OC(C)=O)[C@@H]1C [RIFAMPIN], the MIC90 [2] was 128 µg/mL (≈ 156 µM) and the MIC90 [6] was 4 µg/mL (≈ 4.86 µM).
C[C@@H](O)[C@H]1C(=O)N2C(C(=O)O)=C(SC3CN(C4=NCCS4)C3)[C@H](C)[C@H]12 [TEBIPENEM] was tested, and the MIC90 [23] was 1.25 µg/mL (≈ 3.26 µM), the MIC90 (Staphylococcus aureus [8]) was 0.03 µg/mL (≈ 0.0782 µM) and the MIC90 (Enterococcus faecalis [17]) was 0.25 µg/mL (≈ 0.652 µM).
